Tests used:
[1] = 298.15 K, 101.33 kPa, Liquid; for viscosity: Capillary tube (Ostwald / Ubbelohde) method; for speed of sound: Sing-around technique in a fixed-path interferometer
[2] = xn = mol fraction of the nth substance listed; conditions: 298.15 K, 101 kPa, Liquid; for viscosity: Capillary tube (Ostwald / Ubbelohde) method; for speed of sound: Sing-around technique in a fixed-path interferometer

CCCO [propan-1-ol]
[1]
Conditions | mass density [kg/m3] | speed of sound [m/s] | viscosity [mPa·s]
– | 799.666 | 1206.5 | 1.959

CCCCCO [pentan-1-ol]
[1]
Conditions | mass density [kg/m3] | speed of sound [m/s] | viscosity [mPa·s]
– | 811.001 | 1276 | 3.495

CCCCCCCO [heptan-1-ol]
[1]
Conditions | mass density [kg/m3] | speed of sound [m/s] | viscosity [mPa·s]
– | 818.851 | 1327.4 | 5.886

CO [methanol]
[1]
Conditions | mass density [kg/m3] | speed of sound [m/s] | viscosity [mPa·s]
– | 786.548 | 1102.6 | 0.5444

COCC(C)OCC(C)OC (centres undefined) [2-methoxy-1-(2-methoxy-1-methylethoxy)propane] + CCCO
[2]
Conditions | mass density [kg/m3] | speed of sound [m/s] | viscosity [mPa·s]
x1 = 0.0008 | – | – | 1.955
x1 = 0.0061 | – | – | 1.928
x1 = 0.0186 | – | – | 1.866
x1 = 0.0409 | – | – | 1.775
x1 = 0.0653 | 815.198 | 1210.9 | –
x1 = 0.0666 | – | – | 1.678
x1 = 0.0903 | – | – | 1.599
x1 = 0.1089 | 824.018 | 1212.8 | –
x1 = 0.1309 | – | – | 1.494
x1 = 0.1451 | 830.582 | 1214 | –
x1 = 0.1846 | – | – | 1.382
x1 = 0.2124 | 841.11 | 1215.2 | –
x1 = 0.267 | – | – | 1.264
x1 = 0.2694 | 848.766 | 1216 | –
x1 = 0.3041 | 852.935 | 1215.8 | –
x1 = 0.3136 | – | – | 1.211
x1 = 0.3359 | 856.509 | 1215.6 | –
x1 = 0.345 | – | – | 1.184
x1 = 0.3718 | – | – | 1.164
x1 = 0.3913 | 862.204 | 1215.6 | –
x1 = 0.4516 | – | – | 1.112
x1 = 0.4561 | 868.154 | 1215.4 | –
x1 = 0.502 | 872.013 | 1215.3 | –
x1 = 0.5198 | – | – | 1.081
x1 = 0.5464 | 875.439 | 1214.6 | –
x1 = 0.5625 | – | – | 1.066
x1 = 0.6111 | – | – | 1.05
x1 = 0.6139 | 880.179 | 1213.9 | –
x1 = 0.6459 | – | – | 1.043
x1 = 0.6513 | 882.571 | 1213.2 | –
x1 = 0.708 | 885.911 | 1212.5 | –
x1 = 0.7346 | – | – | 1.021
x1 = 0.7572 | 888.492 | 1211.4 | –
x1 = 0.7703 | – | – | 1.012
x1 = 0.8098 | 891.002 | 1210.3 | –
x1 = 0.8317 | – | – | 1.005
x1 = 0.8457 | 892.536 | 1209.5 | –
x1 = 0.8591 | – | – | 1.002
x1 = 0.9067 | 894.986 | 1207.9 | –
x1 = 0.9511 | – | – | 0.9968
x1 = 0.9576 | 896.939 | 1206.4 | –
x1 = 0.9746 | 897.584 | 1206.1 | –
x1 = 0.9753 | – | – | 0.993
x1 = 0.9915 | – | – | 0.9927

COCC(C)OCC(C)OC (centres undefined) [2-methoxy-1-(2-methoxy-1-methylethoxy)propane]
[1]
Conditions | mass density [kg/m3] | speed of sound [m/s] | viscosity [mPa·s]
– | 898.566 | 1205 | 0.9926

From the NIST ThermoML archive (doi:10.1016/j.jct.2008.01.008)
